Results reported in US20170119020A1, “METHOD OF FEEDING AN ANIMAL” (CARGILL, INCORPORATED, priority 2014, published 2017).

Legend:
[1] = tested on: eggs and hatched chickens of Cobb broiler breeders; assay: Hatchability, fertility and chick quality of eggs of Example 1 (Example 2); assay type: in vivo, chicken
Protocol: The eggs were stored based on breeder pen and storage day. Eggs were allocated to twelve trays and nine blocks, with each block representing a storage day. At E17, all eggs were candled and at E18, eggs were transferred from the incubator […] to […] baskets. […] (64.4° F.) and a relative humidity of 75%. At the start of the incubation period, the eggs were weighed and allocated into blocks, each block representing a storage day. Each block consisted of twelve experimental units, with each experimental unit indicating a group of ten eggs. Only intact eggs were included; cracked, dirty, or eggs with deformed shells were excluded from the experiment. The eggs were placed in a NatureForm NMC 2340 Incubator with automatic control of temperature and relative humidity. From E0 until E18, the eggs were placed in setter trolleys, which consist of two shelves with a capacity for thirteen trays each. Each tray has three flats of thirty eggs. During this period, the incubator start temperature was set to 37.5° C. and relative humidity to 54%. […] After the setter period (E0-E18), eggs were transferred to baskets in the […] based on the blocking structure in the setter. The eggs were placed into subdivisions of a hatching crate, per replicate, and following tray order per block. Each […] trolley has twelve baskets with a capacity for 180 eggs each. […] Egg weights were recorded per experimental unit at E0. At hatch (E21) the number of dead chickens, dead embryos and […] (internal and external) were recorded. Remaining non-hatched eggs were opened to determine age and cause of death. The number of hatched chickens was recorded per replicate, as well as average chick weight. Sex was determined by cloaca sexing, performed by a professional chicken-sexer. Hatchability was calculated as percentage of total and of fertile eggs (eggs which contained living embryos after E17). […] Only chickens with an average body weight, completely dry, showing active movement and with a good navel score were selected. […] Sample chickens were individually weighed and killed by cervical dislocation to measure remaining yolk-sac weights, yolk-free body mass (“YFBM”), chick length, and shank length of both shanks. Relative asymmetry was calculated according to the following formula: RA=(|L-R|/[(L+R)/2])×100.

Ross 308 embryos = assay: Embryonic mortality, hatchability and chick quality at hatch (Example 5); assay type: in vivo, chicken; conditions: for Chick length / Chick weight average / Chick weight dissected chicks / Liver weight / Relative asymmetry / YFBM (yolk free body mass) / Yolk weight: at hatch; for Chick length / Chick weight average / Chick weight dissected chicks / Liver weight / Relative asymmetry / YFBM (yolk free body mass) / Yolk weight / Egg weight EQ / Relative liver weight / Relative yolk weight / Relative chick weight: breeder diet; for Relative liver weight / Relative yolk weight: percentage of chick weight; for Relative chick weight: percentage of egg weight at EO; for Early Embryonic Mortality: E0-E7; for Mid Embryonic Mortality: E8-E18; for Late Embryonic Mortality: E19-E21
Protocol: For a period of six days, eggs were collected from the broiler breeder flock of Example 4 above. The eggs were stored based on breeder pen and storage day for an additional three days before the brooding period started. All eggs were incubated until hatch. All eggs were distributed over 24 trays and 6 blocks, with each block representing a storage day.
A total of 2160 eggs derived from the 37-38 week broiler breeders (Ross 308) of Example 4 were collected and stored in the egg storage unit of the broiler breeder facility. At the start of the incubation period, the eggs were weighed and allocated into blocks, each block representing a storage day. Each block consisted of 24 experimental units, with each experimental unit indicating a group of 15 eggs. Only intact eggs were included and eggs that were cracked, dirty or that had deformed shells were excluded from the trial.
The eggs were placed in a Nature Form NMC 2340 Incubator with automatic control of temperature and relative humidity. From E0 till E18 the eggs were placed in setter trolleys, which consist of two shelves with a capacity for 13 trays each. Each tray has three flats of 30 eggs each. During this period, the incubator start temperature was set at 37.5° C. and relative humidity at 54%.
After the setter period (E0-E18), eggs were transferred to baskets in the hatchers based on the blocking and tray structure in the setter. The eggs were placed into subdivisions of a hatching crate (per experimental unit of 15 eggs), and following tray order per block (starting with 1AO ending with 24CI). Each hatcher trolley has twelve baskets with a capacity for 180 eggs each. Eggs of tray 1-12 were placed in incubator machine 1, eggs of tray 13-24 were placed in incubator machine 2. During this period, the incubator temperature was set at 36.7° C. and relative humidity at 70%.
Group egg weights were recorded at E0. At E7 and E18, all eggs were candled and empty eggs or eggs containing dead embryos were removed (early dead E0-E7, mid dead E8-E18). At E18 eggs were transferred to the hatching baskets after candling. At hatch (E21) the number of dead chickens, late dead embryos (E19-E21) and pipped eggs were recorded. The number of hatched chickens was recorded per replicate, as well as average chick weight. […] Sex was determined by feather sexing, female chickens were euthanized by CO2 and disposed according to local regulations. Per experimental unit, five male chickens were selected for the grow-out period and allocated to broiler grower pens. Only chickens with an average body weight, completely dry, showing active movement and with a good navel score were selected. After this selection one male chicken per experimental unit was selected for dissection. Sample chickens were individually weighed and killed by cervical dislocation to measure remaining yolk-sac weights, yolk-free body mass (“YFBM”), liver weight, chick length, and shank length of both shanks. The livers were immediately placed on dry ice and after dissection stored at −20° C. for further analysis (“SOD and GSSG”). Relative asymmetry was calculated according to the following formula:
RA=(|L−R|/[(L+R)/2])×100.

[2] = eggs of 28-29 week breeders of Example 1

Cc1c(C)c2c(c(C)c1O)CCC(C)(CCCC(C)CCCC(C)CCCC(C)C)O2 (racemic) [Vitamin E, DL-α-tocopherol] was tested. Which “Chick Weight” value ([1]; at hatch) did it give?
The value was 42.4 g.

And the “Chick Weight” value ([1]; dissected chickens)?
The value was 41.3 g.

What about the “Chick length” value ([1]; dissected chickens) of the same compound?
Its value is 17.9 cm.

What about the “Relative Assymetrie (shank)” value ([1]; dissected chickens) of the same compound?
Its value is 1.59.

And the “YFBM (yolk free body mass)” value ([1]; dissected chickens)?
The value was 36.2 g.

What about the “Yolk weight” value ([1]; dissected chickens) of the same compound?
The value was 4.92 g.

And the “Relative Chick Weight^1” value ([1]; dissected chickens, expressed as percentage of average egg weight)?
The value was 70.7%.

What about the “Relative Chick Weight^2” value ([1]; dissected chickens, expressed as percentage of chick weight) of the same compound?
Its value is 11.8%.

And the Fertility [1, 2]?
Its Fertility is 92.6%.

And the Hatchability of fertile [1, 2]?
Its Hatchability of fertile is 95.6%.

And the Hatchability of total [1, 2]?
The Hatchability of total was 88.6%.

What about the “Relative chick weight” value ([1]; expressed as percentage of average egg weight) of the same compound?
Its value is 72.5%.

What about the Chick length (Ross 308 embryos; vitamin E equivalence 80 ppm) of the same compound?
Its Chick length is 18.3 cm.

And the Chick weight average (Ross 308 embryos; vitamin E equivalence 80 ppm)?
Its Chick weight average is 43.8 g.

And the “Chick weight dissected chicks” value (Ross 308 embryos; vitamin E equivalence 80 ppm)?
Its value is 42.8 g.

What about the Liver weight (Ross 308 embryos; vitamin E equivalence 80 ppm) of the same compound?
The Liver weight was 1.2 g.

And the Relative asymmetry (Ross 308 embryos; vitamin E equivalence 80 ppm)?
The Relative asymmetry was 2.4%.

And the “YFBM (yolk free body mass)” value (Ross 308 embryos; vitamin E equivalence 80 ppm)?
Its value is 39.6 g.

What about the Yolk weight (Ross 308 embryos; vitamin E equivalence 80 ppm) of the same compound?
Its Yolk weight is 4.2 g.

What about the Chick length (Ross 308 embryos; vitamin E equivalence 160 ppm) of the same compound?
Its Chick length is 18.4 cm.

What about the Chick weight average (Ross 308 embryos; vitamin E equivalence 160 ppm) of the same compound?
The Chick weight average was 43.7 g.

And the “Chick weight dissected chicks” value (Ross 308 embryos; vitamin E equivalence 160 ppm)?
Its value is 43.6 g.

What about the Liver weight (Ross 308 embryos; vitamin E equivalence 160 ppm) of the same compound?
The Liver weight was 1.2 g.

What about the Relative asymmetry (Ross 308 embryos; vitamin E equivalence 160 ppm) of the same compound?
The Relative asymmetry was 2.3%.

What about the “YFBM (yolk free body mass)” value (Ross 308 embryos; vitamin E equivalence 160 ppm) of the same compound?
The value was 40.6 g.

And the Yolk weight (Ross 308 embryos; vitamin E equivalence 160 ppm)?
The Yolk weight was 4.2 g.

And the “Egg weight EQ” value (Ross 308 embryos; vitamin E equivalence 80 ppm)?
The value was 62.9 g.

And the “Egg weight EQ” value (Ross 308 embryos; vitamin E equivalence 160 ppm)?
The value was 63.0 g.

What about the Relative liver weight (Ross 308 embryos; vitamin E equivalence 80 ppm) of the same compound?
The Relative liver weight was 2.8%.

And the Relative yolk weight (Ross 308 embryos; vitamin E equivalence 80 ppm)?
The Relative yolk weight was 9.7%.

And the Relative liver weight (Ross 308 embryos; vitamin E equivalence 160 ppm)?
The Relative liver weight was 2.7%.

What about the Relative yolk weight (Ross 308 embryos; vitamin E equivalence 160 ppm) of the same compound?
The Relative yolk weight was 9.4%.

What about the Relative chick weight (Ross 308 embryos; vitamin E equivalence 80 ppm) of the same compound?
The Relative chick weight was 69.7%.

And the Relative chick weight (Ross 308 embryos; vitamin E equivalence 160 ppm)?
The Relative chick weight was 69.4%.

What about the Empty eggs (Ross 308 embryos; vitamin E equivalence 80 ppm) of the same compound?
Its Empty eggs is 1.2%.

And the Hatchability of fertile (Ross 308 embryos; vitamin E equivalence 80 ppm)?
The Hatchability of fertile was 91.8%.

And the Hatchability of total (Ross 308 embryos; vitamin E equivalence 80 ppm)?
Its Hatchability of total is 90.6%.

What about the “Total Embryonic Mortality” value (Ross 308 embryos; vitamin E equivalence 80 ppm) of the same compound?
Its value is 7.7%.

What about the “Early Embryonic Mortality” value (Ross 308 embryos; vitamin E equivalence 80 ppm) of the same compound?
Its value is 4.0%.

What about the “Mid Embryonic Mortality” value (Ross 308 embryos; vitamin E equivalence 80 ppm) of the same compound?
Its value is 1.6%.

And the “Late Embryonic Mortality” value (Ross 308 embryos; vitamin E equivalence 80 ppm)?
Its value is 2.7%.

What about the Empty eggs (Ross 308 embryos; vitamin E equivalence 160 ppm) of the same compound?
Its Empty eggs is 0.0%.

What about the Hatchability of fertile (Ross 308 embryos; vitamin E equivalence 160 ppm) of the same compound?
The Hatchability of fertile was 90.2%.

What about the Hatchability of total (Ross 308 embryos; vitamin E equivalence 160 ppm) of the same compound?
The Hatchability of total was 90.2%.

What about the “Total Embryonic Mortality” value (Ross 308 embryos; vitamin E equivalence 160 ppm) of the same compound?
The value was 8.6%.

And the “Early Embryonic Mortality” value (Ross 308 embryos; vitamin E equivalence 160 ppm)?
Its value is 6.6%.

And the “Mid Embryonic Mortality” value (Ross 308 embryos; vitamin E equivalence 160 ppm)?
Its value is 0.5%.

What about the “Late Embryonic Mortality” value (Ross 308 embryos; vitamin E equivalence 160 ppm) of the same compound?
Its value is 1.8%.
